Experimental data published in patent US20020002171A1, “Materials and methods for killing nematodes and nematode eggs” (priority 2000, published 2002).

Test system: Caenorhabditis elegans
Assay: C. elegans L1 nematicidal dose response in 96-well plates, 5 day visual score (Example 2; same procedure for Example 7, Table 3)
Assay type: in vivo
Parameters: key to 5 Day Visual Score V1 / 5 Day Visual Score V2 / 5 Day Visual Score V3 / 5 Day Visual Score V4 / 5 Day Visual Score V6 / 5 Day Visual Score V5 / Initial HTS Run Visual Score / Follow-up HTS Run Visual Score: Dead: only stiff L1s (no movement); Dead (L4): worms are dead, but at a later larval stage; majority of worms are L1 (based on size) worms move when plate is tapped; majority of worms are L2 (based on size); majority of worms are L3 (based on size); majority of worms are L4 (based on size); AD: majority of worms are adult; #AD: 5 adult worms or less; B!: sterile (0-25 progeny); B: low broodsize (25-100 progeny); ˜B: moderate broodsize (100-250 progeny); <: reduced broodsize (250-500 progeny); OK: no effect (˜1000+ progeny)
Conditions: for 5 Day Visual Score V2 / 5 Day Visual Score V3 / 5 Day Visual Score V4 / 5 Day Visual Score V5 / 5 Day Visual Score V6 / 5 Day Visual Score V1: dose response; for 5 Day Visual Score V2: dilution V2, day 5; for 5 Day Visual Score V3: dilution V3, day 5; for 5 Day Visual Score V4: dilution V4, day 5; for 5 Day Visual Score V5: dilution V5, day 5; for 5 Day Visual Score V6: dilution V6, day 5; for 5 Day Visual Score V1: dilution V1, day 5
Procedure, shortened: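 L1 larvae, 20 per well in NGM with 1% E. coli HB101 and antibiotic/antimycotic, exposed to six 3-fold dilutions from 70 μM down to 0.3 μM (1.4% DMSO at top). Held at 20° C; viability scored visually under 100× dissecting microscope on day 5.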

## CCN(CC)C(=O)C1CCCN(c2nc(NCc3ccccc3)ns2)C1 (stereo not shown) [compound 265]
  Follow-up HTS Run % Run: 111%
  Follow-up HTS Run mOD: 178 mOD
  Initial HTS Run % Run: 108%
  Initial HTS Run mOD: 119 mOD
  5 Day Visual Score V2: OK (no effect (˜1000+ progeny))
  5 Day Visual Score V3: OK (no effect (˜1000+ progeny))
  5 Day Visual Score V4: OK (no effect (˜1000+ progeny))
  5 Day Visual Score V5: OK (no effect (˜1000+ progeny))
  5 Day Visual Score V6: OK (no effect (˜1000+ progeny))

## FC(F)(F)c1cccc(N2CCN(c3nc(NCc4ccccc4)ns3)CC2)c1 [compound 266]
  Follow-up HTS Run % Run: 124%
  Follow-up HTS Run mOD: 200 mOD
  Initial HTS Run % Run: 110%
  Initial HTS Run mOD: 121 mOD
  5 Day Visual Score V1: Dead
  5 Day Visual Score V4: OK (no effect (˜1000+ progeny))
  5 Day Visual Score V5: OK (no effect (˜1000+ progeny))
  5 Day Visual Score V6: OK (no effect (˜1000+ progeny))

## CCOc1cc(CCNc2nsc(N3CCN(c4ccc(F)cc4)CC3)n2)ccc1OC [compound 267]
  Follow-up HTS Run % Run: 99%
  Follow-up HTS Run Visual Score: Dead
  Follow-up HTS Run mOD: 160 mOD
  Initial HTS Run % Run: 94%
  Initial HTS Run Visual Score: Dead
  Initial HTS Run mOD: 103 mOD
  5 Day Visual Score V1: Dead
  5 Day Visual Score V2: L1
  5 Day Visual Score V3: < (reduced broodsize (250-500 progeny))
  5 Day Visual Score V4: OK (no effect (˜1000+ progeny))
  5 Day Visual Score V5: OK (no effect (˜1000+ progeny))
  5 Day Visual Score V6: OK (no effect (˜1000+ progeny))

## Fc1ccc(N2CCN(c3nc(NCCc4ccc(Oc5ccccc5)cc4)ns3)CC2)cc1 [compound 268]
  Follow-up HTS Run % Run: 96%
  Follow-up HTS Run Visual Score: Dead
  Follow-up HTS Run mOD: 154 mOD
  Initial HTS Run % Run: 128%
  Initial HTS Run Visual Score: Dead
  Initial HTS Run mOD: 141 mOD
  5 Day Visual Score V1: Dead
  5 Day Visual Score V2: Dead
  5 Day Visual Score V4: L4#AD/B
  5 Day Visual Score V5: OK (no effect (˜1000+ progeny))
  5 Day Visual Score V6: B (low broodsize (25-100 progeny))

## Cc1cccc(C)c1N1CCN(c2nc(NCCc3ccc(Oc4ccccc4)cc3)ns2)CC1 [compound 269]
  Follow-up HTS Run % Run: 132%
  Follow-up HTS Run Visual Score: L4/AD/B
  Follow-up HTS Run mOD: 212 mOD
  Initial HTS Run % Run: 166%
  Initial HTS Run Visual Score: L4/1AD/B
  Initial HTS Run mOD: 183 mOD
  5 Day Visual Score V1: Dead
  5 Day Visual Score V3: OK (no effect (˜1000+ progeny))
  5 Day Visual Score V4: OK (no effect (˜1000+ progeny))
  5 Day Visual Score V5: OK (no effect (˜1000+ progeny))
  5 Day Visual Score V6: OK (no effect (˜1000+ progeny))

## CCCCCCCCCCCCCCCCCCN(C)c1nc(NCCc2ccc(Oc3ccccc3)cc2)ns1 [compound 270]
  Follow-up HTS Run % Run: 113%
  Follow-up HTS Run mOD: 182 mOD
  Initial HTS Run % Run: 149%
  Initial HTS Run mOD: 164 mOD
  5 Day Visual Score V1: Dead
  5 Day Visual Score V4: OK (no effect (˜1000+ progeny))
  5 Day Visual Score V5: OK (no effect (˜1000+ progeny))
  5 Day Visual Score V6: OK (no effect (˜1000+ progeny))

## COc1ccc(CNc2nsc(N3CCN(c4ccc(F)cc4)CC3)n2)cc1 [compound 271]
  Follow-up HTS Run % Run: 109%
  Follow-up HTS Run mOD: 175 mOD
  Initial HTS Run % Run: 101%
  Initial HTS Run Visual Score: L4/AD/B
  Initial HTS Run mOD: 111 mOD
  5 Day Visual Score V1: Dead
  5 Day Visual Score V4: < (reduced broodsize (250-500 progeny))
  5 Day Visual Score V5: OK (no effect (˜1000+ progeny))
  5 Day Visual Score V6: < (reduced broodsize (250-500 progeny))

## C=CCN(CC=C)c1nc(NCC(c2ccccc2)c2ccccc2)ns1 [compound 272]
  Follow-up HTS Run % Run: 110%
  Follow-up HTS Run mOD: 177 mOD
  Initial HTS Run % Run: 108%
  Initial HTS Run Visual Score: L3
  Initial HTS Run mOD: 119 mOD
  5 Day Visual Score V1: Dead
  5 Day Visual Score V2: B (low broodsize (25-100 progeny))
  5 Day Visual Score V3: OK (no effect (˜1000+ progeny))
  5 Day Visual Score V4: OK (no effect (˜1000+ progeny))
  5 Day Visual Score V5: OK (no effect (˜1000+ progeny))
  5 Day Visual Score V6: OK (no effect (˜1000+ progeny))

## CCCCCCCCCCNc1nsc(N2CCN(c3ccc(F)cc3)CC2)n1 [compound 273]
  Follow-up HTS Run % Run: 94%
  Follow-up HTS Run Visual Score: Dead
  Follow-up HTS Run mOD: 151 mOD
  Initial HTS Run % Run: 101%
  Initial HTS Run mOD: 111 mOD
  5 Day Visual Score V1: Dead
  5 Day Visual Score V2: Dead
  5 Day Visual Score V3: B (low broodsize (25-100 progeny))
  5 Day Visual Score V4: ˜B (moderate broodsize (100-250 progeny))
  5 Day Visual Score V5: OK (no effect (˜1000+ progeny))
  5 Day Visual Score V6: OK (no effect (˜1000+ progeny))

## CCCCCCCCCCNc1nsc(N2CCN(c3ncccn3)CC2)n1 [compound 274]
  Follow-up HTS Run % Run: 116%
  Follow-up HTS Run Visual Score: Dead
  Follow-up HTS Run mOD: 187 mOD
  Initial HTS Run % Run: 111%
  Initial HTS Run Visual Score: Dead
  Initial HTS Run mOD: 122 mOD
  5 Day Visual Score V1: Dead
  5 Day Visual Score V2: Dead
  5 Day Visual Score V4: B (low broodsize (25-100 progeny))
  5 Day Visual Score V5: OK (no effect (˜1000+ progeny))
  5 Day Visual Score V6: OK (no effect (˜1000+ progeny))

## CCCCCCCCCCNc1nsc(N2CCN(c3c(C)cccc3C)CC2)n1 [compound 275]
  Follow-up HTS Run % Run: 105%
  Follow-up HTS Run Visual Score: Dead
  Follow-up HTS Run mOD: 169 mOD
  Initial HTS Run % Run: 95%
  Initial HTS Run Visual Score: Dead
  Initial HTS Run mOD: 105 mOD
  5 Day Visual Score V1: Dead
  5 Day Visual Score V2: Dead
  5 Day Visual Score V3: OK (no effect (˜1000+ progeny))
  5 Day Visual Score V4: OK (no effect (˜1000+ progeny))
  5 Day Visual Score V5: OK (no effect (˜1000+ progeny))
  5 Day Visual Score V6: OK (no effect (˜1000+ progeny))

## CCCCCCCCCCNc1nsc(N(CC)C2CCCCC2)n1 [compound 276]
  Follow-up HTS Run % Run: 116%
  Follow-up HTS Run Visual Score: Dead
  Follow-up HTS Run mOD: 187 mOD
  Initial HTS Run % Run: 116%
  Initial HTS Run Visual Score: Dead
  Initial HTS Run mOD: 128 mOD
  5 Day Visual Score V1: Dead
  5 Day Visual Score V2: Dead
  5 Day Visual Score V4: OK (no effect (˜1000+ progeny))
  5 Day Visual Score V5: OK (no effect (˜1000+ progeny))
  5 Day Visual Score V6: OK (no effect (˜1000+ progeny))

## CCCCCCCCCCNc1nsc(N(CC(CC)CCCC)CC(CC)CCCC)n1 (stereo not shown) [compound 278]
  Follow-up HTS Run % Run: 109%
  Follow-up HTS Run Visual Score: Dead
  Follow-up HTS Run mOD: 175 mOD
  Initial HTS Run % Run: 112%
  Initial HTS Run Visual Score: Dead
  Initial HTS Run mOD: 123 mOD
  5 Day Visual Score V1: Dead
  5 Day Visual Score V2: Dead
  5 Day Visual Score V3: ˜B (moderate broodsize (100-250 progeny))
  5 Day Visual Score V4: OK (no effect (˜1000+ progeny))
  5 Day Visual Score V5: OK (no effect (˜1000+ progeny))
  5 Day Visual Score V6: OK (no effect (˜1000+ progeny))

## CCCCCCCCCCNc1nsc(N(CCCC)Cc2ccccc2)n1 [compound 279]
  Follow-up HTS Run % Run: 131%
  Follow-up HTS Run Visual Score: Dead
  Follow-up HTS Run mOD: 211 mOD
  Initial HTS Run % Run: 144%
  Initial HTS Run Visual Score: Dead
  Initial HTS Run mOD: 158 mOD
  5 Day Visual Score V1: Dead
  5 Day Visual Score V2: Dead
  5 Day Visual Score V4: OK (no effect (˜1000+ progeny))
  5 Day Visual Score V5: OK (no effect (˜1000+ progeny))
  5 Day Visual Score V6: OK (no effect (˜1000+ progeny))

## CCCCCCCCCCNc1nsc(N(CC)Cc2ccccc2)n1 [compound 280]
  Follow-up HTS Run % Run: 122%
  Follow-up HTS Run Visual Score: Dead
  Follow-up HTS Run mOD: 196 mOD
  Initial HTS Run % Run: 144%
  Initial HTS Run Visual Score: Dead
  Initial HTS Run mOD: 158 mOD
  5 Day Visual Score V1: Dead
  5 Day Visual Score V2: Dead
  5 Day Visual Score V3: ˜B (moderate broodsize (100-250 progeny))
  5 Day Visual Score V4: OK (no effect (˜1000+ progeny))
  5 Day Visual Score V5: OK (no effect (˜1000+ progeny))
  5 Day Visual Score V6: OK (no effect (˜1000+ progeny))

## CCCCCCCCCCNc1nsc(N(CC(C)C)CC(C)C)n1 [compound 281]
  Follow-up HTS Run % Run: 128%
  Follow-up HTS Run Visual Score: Dead
  Follow-up HTS Run mOD: 206 mOD
  Initial HTS Run % Run: 141%
  Initial HTS Run Visual Score: Dead
  Initial HTS Run mOD: 155 mOD
  5 Day Visual Score V1: Dead
  5 Day Visual Score V2: Dead
  5 Day Visual Score V4: OK (no effect (˜1000+ progeny))
  5 Day Visual Score V5: OK (no effect (˜1000+ progeny))
  5 Day Visual Score V6: OK (no effect (˜1000+ progeny))

## C=CCN(CC=C)c1nc(NCCCCCCCCCC)ns1 [compound 282]
  Follow-up HTS Run % Run: 122%
  Follow-up HTS Run Visual Score: Dead
  Follow-up HTS Run mOD: 197 mOD
  Initial HTS Run % Run: 135%
  Initial HTS Run Visual Score: Dead
  Initial HTS Run mOD: 148 mOD
  5 Day Visual Score V1: Dead
  5 Day Visual Score V2: Dead
  5 Day Visual Score V4: OK (no effect (˜1000+ progeny))
  5 Day Visual Score V5: OK (no effect (˜1000+ progeny))
  5 Day Visual Score V6: OK (no effect (˜1000+ progeny))
